Active and inactive are the calls of the source. No rule for the calls is given here.
system: INS-1E Gaussia luciferase insulin secretion, no glucose, luminescence; test: insulin secretion activators without glucose, dose response, counter-screen for glucose-dependent insulin secretion activators, cell-based, INS-1E, Gaussia luciferase, luminescence, cherry-pick (AID 977606)

Point of comparison: `O=c1[nH]cnc2nc(-c3ccc(N(CCCl)CCCl)cc3)[nH]c12`, AC40 4.26 µM. Against it:
- CCCCc1c(-c2ccccc2F)ncn1CCc1ccccc1OC — 2.2-fold higher, 9.38 µM
- O=C(NCC1OCCc2ccccc21)c1ccc(NC(=O)c2ccc(Cl)cc2Cl)cc1 (stereo unspecified) — 4.2-fold higher, 17.9 µM
- COC(=O)C1=C(C)N(Cc2cccc(C(F)(F)F)c2)C(=NCc2ccc3c(c2)OCO3)NC1CCc1ccccc1 (stereo unspecified) — within 1.5-fold, 6.1 µM
- Cc1ncc(N=Nc2ccc(F)cc2)c(-c2ccc(Cl)cc2)n1 — 2-fold higher, 8.66 µM
- O=c1c2ccccc2nc(-c2ccco2)n1/N=C/c1ccccc1O — 2.7-fold higher, 11.7 µM
- CC(C)CC#Cc1ccc2c(c1)O[C@@H](CN(C)Cc1ccccc1)[C@H](C)CN([C@H](C)CO)S2(=O)=O — 2.1-fold higher, 8.93 µM
- Cc1ccc(C)c(OCC(=O)Nc2nonc2NC(=O)COc2cc(C)ccc2C)c1 — within 1.5-fold, 3.38 µM
- CCS(=O)(=O)Nc1ccc(-c2cc(-c3ccccc3)c3cc(C)ccc3n2)cc1 — 4.1-fold higher, 17.5 µM
- COC(=O)c1ccc(C2C(Oc3ccc(OC)cc3)C(=O)N2CCc2ccc(F)cc2)cc1 (stereo unspecified) — 1.6-fold higher, 6.79 µM
- O=C1Nc2ccccc2N(C(=O)c2ccc3ccccc3c2)C1c1nc2ccccc2[nH]1 (stereo unspecified) — 1.5-fold higher, 6.41 µM
- COc1ccc(NC(=O)Cn2cnc3c(cnn3-c3ccc(C)c(C)c3)c2=O)c(OC)c1 — within 1.5-fold, 3.41 µM
- C=CCNC(=S)N/N=C/c1ccc(-c2cc(Cl)ccc2Cl)o1 — within 1.5-fold, 4.34 µM
- COCCOc1ccc(C(F)(F)F)cc1NC(=O)c1ccccc1F — 1.9-fold higher, 7.89 µM
- COC(=O)C1=C(C)N(Cc2cccc(C(F)(F)F)c2)C(=NCc2ccc(C(F)(F)F)cc2)NC1c1ccccc1 (stereo unspecified) — 2.1-fold higher, 8.93 µM
- OC1(C#Cc2c(-c3ccsc3)sc3ccccc23)CCCCC1 — 3.1-fold higher, 13.3 µM
- COc1ccc(-c2ccc(-c3noc(-c4ccco4)n3)c(OC)n2)cc1 — within 1.5-fold, 5.41 µM
- c1ccc(Oc2ccccc2-c2cc(NCCc3cccnc3)n3nccc3n2)cc1 — 3.1-fold higher, 13.1 µM
- CCCCc1nc(NCCN)c(C#N)c2c1CSC(C)(C)C2 — 2.7-fold higher, 11.6 µM
- C/C(=N\NC(=O)c1ccc(Cl)c(Cl)c1)c1ccc(Br)s1 — 1.7-fold higher, 7.32 µM
- O=c1c2cc(F)ccc2sn1-c1ccccc1Cl — 3.2-fold lower, 1.35 µM
- Fc1cccc(CN2C[C@@H]3N[C@H](C2)C3c2ccc(/C=C/c3ccccc3)cc2)c1 (stereo partly specified) — 1.5-fold higher, 6.41 µM
- O=C(Nc1ccc(C(F)(F)F)cc1)N1C[C@@H]2N[C@H](C1)C2c1ccc(-c2ccccc2)cc1 (stereo partly specified) — 2-fold higher, 8.46 µM
- CCCc1nc2ccccc2c(=O)n1CC(=O)c1ccc(OC)cc1 — within 1.5-fold, 5.72 µM
- Cc1ccc(C)c(OCC(=O)N/N=C/c2c(C)nn(-c3ccccc3)c2Cl)c1C — 2.6-fold lower, 1.63 µM
- O=C(COc1ccc2c(c1)OCO2)Nc1ccc2c(c1)oc1ccccc12 — 2.9-fold higher, 12.2 µM
- Cc1cc(Cl)ccc1Oc1nc(-c2ccccc2)ncc1S(C)(=O)=O — within 1.5-fold, 3.04 µM
- CCN=C1NC(c2ccc(C(F)(F)F)cc2)C(C(=O)OC)=C(C)N1Cc1cccc(C(F)(F)F)c1 (stereo unspecified) — within 1.5-fold, 3.88 µM
- NC(N)=N/N=C/c1ccc(OCc2ccccc2)c(OCc2ccccc2)c1 — 1.6-fold higher, 6.87 µM
- CCC(=O)Nc1sc(Cc2ccc3c(c2)OCO3)c(C)c1C(N)=O — 1.6-fold higher, 7.01 µM
- COc1ccc(C)c2sc(N(CCCN(C)C)C(=O)c3ccc(S(=O)(=O)N4CCc5ccccc5C4)cc3)nc12 — within 1.5-fold, 3.62 µM
- C/C=C/c1ccc(C2[C@@H]3CN(C(=O)Nc4ccc(C(F)(F)F)cc4)C[C@H]2N3)cc1 (stereo partly specified) — within 1.5-fold, 5.83 µM
- CN(C)S(=O)(=O)c1cccc(-n2sc3ccccc3c2=O)c1 — 1.7-fold lower, 2.58 µM
- NC(=O)c1ccc2nc(-c3ccccc3)c(-c3ccccc3)nc2c1 — 4.6-fold higher, 19.8 µM
- Cc1ccccc1Cn1ccc(NC(=O)c2cc3nc(-c4ccco4)cc(C(F)(F)F)n3n2)n1 — 1.8-fold higher, 7.7 µM
- O=C(Nc1ccc2c(c1)OCO2)c1sc2cc(Cl)ccc2c1Cl — within 1.5-fold, 4.98 µM
- COc1nc(-c2ccc(Cl)cc2)ccc1-c1noc(-c2ccco2)n1 — 3.8-fold higher, 16 µM

With `CCc1nc2ccc(C(=O)NCCCN3CCCC3=O)cn2c1N(CCC(C)C)CCN(C)C` the AC40 was > 35 µM (inactive).
With `CC(C)CC#Cc1ccc([C@H]2[C@H]3CN(C(=O)c4cnccn4)CC(=O)N3[C@H]2CO)cc1` the AC40 was > 35 µM (inactive).
For `COc1ccc(S(=O)(=O)N2CCc3ccccc3C2)cc1OC`, the AC40 was > 35 µM (inactive).
`Cc1cc(C(F)F)n2ncc(C(=O)NCc3ccc(F)cc3)c2n1` was tested, and the AC40 was > 35 µM (inactive).

From PubChem BioAssay AID977606 (Broad Institute, 2014)
